Where no end group is shown, it is not given here.
What was measured:
cathepsin D [1] = molecular target: cathepsin D (Homo sapiens, UniProt P07339); conditions: cited from earlier work
Ii = conditions: cited from earlier work
cathepsin B = cathepsin B (Homo sapiens, UniProt P07858); conditions: cited from earlier work
[2] = test system: E^k -restricted murine T cell hybridoma, TPc9.1; assay: Enhancement of presentation of pigeon cytochrome C(81-104) by fixed CH27 cells to TPc9.1 T hybridoma (IL-2/IL-4, HT-2 indicator); type: cell-based
Protocol: The assay was carried out as follows. 5×10^4 paraformaldehyde-fixed CH27 B lymphoma cells (antigen presenting cells) were incubated in 96-well plates with 5×10^4 TPc9.1 T hybridoma cells (irradiated 2200 rads) for 24 hrs in the presence of: no peptides, 50 μM Ii peptide only, 6 μM pigeon cytochrome C(81-104) peptide only, and 50 μM Ii peptide plus 6 μM pigeon cytochrome C(81-104) peptide. Each condition was assayed in sextuplet. After incubation, the response of the T cell hybridoma was determined by measuring the IL-2/IL-4 secreted during the 24 hr culture. The supernatants were collected and were tested for IL-2/IL-4 content by the ability to support the growth of the IL-2/ IL-4-dependent cell line HT-2 as measured by [^3 H]thymidine incorporation. The values presented in Table V are the CPM×10^-3 incorporated in the HT-2 indicator assay.
The enhancement of responses to pigeon cytochrome C peptide (81-104) by Ii (148-164) and Ii (78-92) was assayed as a function of concentration of the added Ii peptide (Table VI). The values in the Table represent the % enhancement of the pigeon cytochrome C(81-104) peptide-specific, E^k -restricted response by the TPc9.1 murine T cell hybridoma (T) to the peptide presented by paraformaldehyde-fixed CH27 B lymphoma cells (APC). Culture supernatants were collected and were tested for IL-2/IL-4 content by the ability to support the growth of the Il-2/IL-4-dependent cell Line HT-2 as measured by the incorporation of [^3 H]thymidine. The % enhancement was calculated as: [(CPM of T+APC+peptide+Ii peptide / CPM of T+APC+peptide)×100]-100.

cathepsin D [3] = assay: Cathepsin D digestion of wild type and mutant Ii in trimers with HLA-DR1 α,β chains (SDS-PAGE of fragments); type: biochemical; conditions: pH 5.0, 30 min, room temperature, Jesthom microsomal membrane proteins
Protocol: The lowest level of cathepsin D seen to cleave Ii was 0.1 U/ml. Solubilized microsomal membrane proteins from [^35 S]methionine-labeled Jesthom cells were treated with the cathepsin D (concentrations 0, 0.01, 0.05, 0.1, 0.5, 2.5, 10.0 U/ml) at pH 5.0 for 30 min at room temperature. At the end of the incubation, the enzyme was inactivated and immunoprecipitates with anti-class II mAb, IVA12 or with anti-Ii mAb, VIC-Y1 were formed. The immunoprecipitated samples were analyzed by SDS-PAGE and autoradiography. In a second experiment, when the lowest level of cathepsin D (0.1 U/ml) seen to cleave Ii was added to the assay for peptide binding in the presence of varying concentrations of cathepsin B (0.02-0.5 U/ml), the net level of peptide binding was enhanced about 3 times that seen without cathepsin D, as judged by densitometry of the autoradiographs. For this experiment iodinated HSAB-MA(18-29) peptide and unradiolabeled microsomal membranes were incubated with or without 0.1 U/ml cathepsin D for 10 min or 30 min in the presence of varying amounts of cathepsin B (0.02, 0.1, or 0.5 U/ml). After subsequent photoactivation and immunoprecipitation with anti-class II mAb, the samples were subjected to SDS-PAGE and autoradiography.
CD digestions were carried out according to Reyes et al. (1991). […]

cathepsin D (Homo sapiens, UniProt P07339), sequence (P07339 65-412, species assumed): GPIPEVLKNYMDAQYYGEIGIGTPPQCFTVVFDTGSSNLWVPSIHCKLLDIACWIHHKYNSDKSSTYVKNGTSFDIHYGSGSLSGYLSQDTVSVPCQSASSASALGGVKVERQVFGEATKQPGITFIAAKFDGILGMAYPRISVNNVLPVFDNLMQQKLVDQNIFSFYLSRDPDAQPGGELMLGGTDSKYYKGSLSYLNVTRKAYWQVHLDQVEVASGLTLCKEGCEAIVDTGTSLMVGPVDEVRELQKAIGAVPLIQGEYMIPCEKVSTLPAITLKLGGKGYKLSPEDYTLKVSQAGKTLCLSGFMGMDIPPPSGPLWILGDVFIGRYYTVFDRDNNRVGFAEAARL

Compound | inhibition of cathepsin D (cathepsin D [1]) | antigen charging in vitro (Ii) | final proteolysis of Ii (Ii) | inhibition of cathepsin B (cathepsin B) | % enhancement of the pigeon cytochrome C(81-104) peptide-specific response ([2]; Ii peptide 1 μM) | % enhancement of the pigeon cytochrome C(81-104) peptide-specific response ([2]; Ii peptide 10 μM) | % enhancement of the pigeon cytochrome C(81-104) peptide-specific response ([2]; Ii peptide 50 μM) | % enhancement of the pigeon cytochrome C(81-104) peptide-specific response ([2]; Ii peptide 100 μM) | lowest level of cathepsin D seen to cleave Ii (cathepsin D [3])
CC(=O)N[C@@H](CC(C)C)C(=O)N[C@@H](CC(C)C)C(=O)N[C@H](C=O)CCCNC(=N)N [leupeptin] | not | blocks antigen charging in vitro | limits the final proteolysis of Ii to p21 and p14 fragments | inhibited | – | – | – | – | –
ENLRHLKNTMETLDWKV [Ii (148-164), ENLRHLKNTMETLDWKV] | – | – | – | – | 0% | 19% | 91% | 140% | –
YRMKLPKPPKPVSKMR [Ii (78-92), YRMKLPKPPKPVSKMR] | – | – | – | – | 40% | 101% | 187% | 170% | –
cathepsin D: aspartyl protease | – | – | – | – | – | – | – | – | 0.1 U/ml

— patent US5559028A, “Methods of enhancing or antigen presentation to T cells inhibiting” (Antigen Express, Inc., priority 1993, dated 1996)
